From US7741020B2, “Methods for detecting Lp-PLA2 activity and inhibition of Lp-PLA2 activity” (Glaxo Group Limited, priority 2004, dated 2010)
Several values for one entry are separate records, joined by “and”; a condition that tells them apart may be missing. Identical values can stand only once.

Experiments:
Lp-PLA2 [1] = target: T1, Lp-PLA2 (Homo sapiens, UniProt Q13093); assay: Auto PAF AH assay (Azwell kit, Olympus Au640 analyzer); assay type: biochemical; settings: plasma of individual human subjects
T1 sequence (Q13093 22-441): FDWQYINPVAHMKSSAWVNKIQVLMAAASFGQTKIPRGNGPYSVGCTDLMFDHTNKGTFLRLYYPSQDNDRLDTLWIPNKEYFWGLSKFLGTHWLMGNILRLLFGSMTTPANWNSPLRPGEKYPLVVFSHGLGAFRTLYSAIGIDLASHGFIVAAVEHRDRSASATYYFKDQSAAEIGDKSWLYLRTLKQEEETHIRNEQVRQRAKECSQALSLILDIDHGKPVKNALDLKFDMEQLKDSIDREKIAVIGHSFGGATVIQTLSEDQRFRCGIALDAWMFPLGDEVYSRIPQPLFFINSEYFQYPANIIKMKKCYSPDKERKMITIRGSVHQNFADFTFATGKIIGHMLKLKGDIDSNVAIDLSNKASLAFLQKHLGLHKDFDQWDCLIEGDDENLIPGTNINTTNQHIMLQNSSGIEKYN
Description: The Auto PAF AH assay kit, manufactured by Azwell (Osaka, Japan), is commercially available in the United States through Karlan Research Products Corporation (Santa Rosa, Calif.).
Prepare the following reagents: • R1: Use this buffer solution as supplied in Azwell Auto PAF AH assay kit. Store at 4° C. Protect from light. • R2: Prepare the R2 working solution by mixing R2A and R2B (supplied in Azwell Auto PAF AH assay kit) in the proportion of 19:1, Store at 4° C. Protect from light. • 3. […] Briefly centrifuge to spin down fibrin clots/particles in the plasma. • 4. Place Sarstedt tubes containing plasma samples onto sample tubes that fit the instrument. Run plasma samples through the Au640 analyzer. After choosing the PAF AH assay program, the analytical procedure described below is performed automatically: • Test sample (2 μL)+R1 (240 μL), 37° C., 5 minutes [0-5 minutes] • Add R2 (80 μL), 37° C., 5 minutes [5-10 minutes] • Measure the absorbance at 410 nm and 480 nm [6-8 minutes] • Calculate PAF AH activity (IU/L) • 5.

Lp-PLA2 [2] = target: T1, Lp-PLA2; assay: High throughput radiometric assay for Lp-PLA2 activity (3H-PAF); assay type: biochemical; settings: plasma of individual human subjects
Description: (cat #6005162) Reagents • HEPES (4-(2-hydroxyethyl)-1-piperazineethane sulfonic acid) Sigma Chemical Co., St. Louis Mo. […] (Cat # E7889; 0.5 M) • ^3H-Platelet Activating Factor, 1-O-Hexadecyl-[acetyl-^3H(N)], (^3H-PAF)-NEN Life Science Products, Roxbury, Mass. (Cat # NET-910, supplied as an ethanol solution, typically 0.1 mCi/mL; 250 uCi) • C16-PAF, (1-hexadecyl-2-acetyl-sn-glycero-3-phosphocholine): Avanti Polar Lipids, Alabaster, Ala. […] (Cat # T9159) Assay Buffer • 100 mM Hepes, pH 7.4 • 150 mM NaCl • 5 mM EDTA • Store it at room temperature Procedures • 1. Prepare a ^3H-PAF working solution (for 100 reactions): • a) Aliquot 480 μl ^3H-PAF (10 μM=0.1 mCi/ml at 10.0 Ci/mmol) and 125.3 μl of [C16]PAF (5.0 mg/ml; MW: 524) to a tube; • b) Mix and air dry in the hood; • c) Resuspend the dried pellets in 12.0 ml of assay buffer giving working solutions of 100 μM PAF (i.e. ^3H-PAF at 0.4 μM and cold [C16]PAF at 99.6 μM); • 2. Aliquot 5 μL of assay buffer (for Total counts and Blanks; n=8) or plasma samples in duplicates into a 96-well plate; • 3. Equilibrate the plate to 21° C.; • 4. Add 100 μL of the ^3H-PAF solution to each well, mix and incubate the plate at 21° C. for 5 minutes; • 5. […]; • 6. Add 25 μL of ice-cold TCA solution (56%) to each well, mix and incubate the plate in a refrigerator for 15 minutes; • 7. Centrifuge the plate at 6,000 g for 15 minutes at 4° C.; • 8. […] Add 10 μL of ^3H-PAF working solution to 6 Total Counts wells; • 10. […] Cover the plate with a plate tape and vortex mix at max speed for 10 minutes; • 12. […] Count with a TopCount scintillation counter for 2 minutes each; and • 14.

COCCN1CCC(N(Cc2ccc(-c3ccc(C(F)(F)F)cc3)cc2)C(=O)Cn2c(SCc3cccc(F)c3F)cc(=O)c3ccccc32)CC1 [Formula I]
% Inhibition Auto PAF AH (Lp-PLA2 [1]; 50 mg, 12 hr after dosing): 14.26% and 18.76% and −8.39%
Lp-PLA2 Activity Auto PAF AH (Lp-PLA2 [1]; 50 mg, 12 hr after dosing): 261.50 nmol/min/mL and 409.50 nmol/min/mL and 336.00 nmol/min/mL and 307.00 nmol/min/mL
% Inhibition Auto PAF AH (Lp-PLA2 [1]; 120 mg, 0.5 hr after dosing): 15.42% and 8.74% and 9.58% and 6.66%
% Inhibition Auto PAF AH (Lp-PLA2 [1]; 120 mg, 1 hr after dosing): 11.34% and 7.73%
% Inhibition Auto PAF AH (Lp-PLA2 [1]; 120 mg, 2 hr after dosing): 18.04% and 21.33% and 8.63% and 18.61% and 21.05%
% Inhibition Auto PAF AH (Lp-PLA2 [1]; 120 mg, 3 hr after dosing): 12.42% and 16.24% and 5.90% and 14.65%
% Inhibition Auto PAF AH (Lp-PLA2 [1]; 120 mg, 5 hr after dosing): −1.63% and 5.62%
Lp-PLA2 Activity Auto PAF AH (Lp-PLA2 [1]; 120 mg, 5 hr after dosing): 353.50 nmol/min/mL and 748.00 nmol/min/mL and 416.00 nmol/min/mL and 428.50 nmol/min/mL and 377.00 nmol/min/mL
% Inhibition Auto PAF AH (Lp-PLA2 [1]; 120 mg, 6 hr after dosing): 13.73% and 2.99% and 6.47%
Lp-PLA2 Activity Auto PAF AH (Lp-PLA2 [1]; 120 mg, 6 hr after dosing): 330.00 nmol/min/mL and 714.00 nmol/min/mL and 412.00 nmol/min/mL and 393.00 nmol/min/mL and 366.00 nmol/min/mL
% Inhibition Auto PAF AH (Lp-PLA2 [1]; 120 mg, 9 hr after dosing): 11.63%
% Inhibition Auto PAF AH (Lp-PLA2 [1]; 120 mg, 12 hr after dosing): 7.06% and −3.52%
% Inhibition Radiometric (Lp-PLA2 [2]; 50 mg, 0.5 hr after dosing): 22.34% and 17.17% and 25.59%
Lp-PLA2 Activity Radiometric (Lp-PLA2 [2]; 50 mg, 0.5 hr after dosing): 65.24 nmol/min/mL and 50.18 nmol/min/mL and 78.40 nmol/min/mL and 22.46 nmol/min/mL and 104.52 nmol/min/mL
% Inhibition Radiometric (Lp-PLA2 [2]; 50 mg, 1 hr after dosing): 77.76% and 60.11%
Lp-PLA2 Activity Radiometric (Lp-PLA2 [2]; 50 mg, 1 hr after dosing): 15.85 nmol/min/mL and 26.80 nmol/min/mL and 18.68 nmol/min/mL and 10.60 nmol/min/mL and 30.87 nmol/min/mL
Lp-PLA2 Activity Radiometric (Lp-PLA2 [2]; 50 mg, 2 hr after dosing): 10.00 nmol/min/mL
Lp-PLA2 Activity Radiometric (Lp-PLA2 [2]; 50 mg, 4 hr after dosing): 10.02 nmol/min/mL and 20.76 nmol/min/mL and 14.37 nmol/min/mL and 11.47 nmol/min/mL
% Inhibition Radiometric (Lp-PLA2 [2]; 50 mg, 5 hr after dosing): 86.07%
% Inhibition Radiometric (Lp-PLA2 [2]; 120 mg, 0.5 hr after dosing): 64.75% and 81.63% and 44.97% and 33.96%
Lp-PLA2 Activity Radiometric (Lp-PLA2 [2]; 120 mg, 0.5 hr after dosing): 35.83 nmol/min/mL and 25.97 nmol/min/mL and 16.07 nmol/min/mL and 39.68 nmol/min/mL and 58.09 nmol/min/mL
% Inhibition Radiometric (Lp-PLA2 [2]; 120 mg, 1 hr after dosing): 88.66%
Lp-PLA2 Activity Radiometric (Lp-PLA2 [2]; 120 mg, 1 hr after dosing): 10.00 nmol/min/mL
Lp-PLA2 Activity Radiometric (Lp-PLA2 [2]; 120 mg, 2 hr after dosing): 10.00 nmol/min/mL
Lp-PLA2 Activity Radiometric (Lp-PLA2 [2]; 120 mg, 3 hr after dosing): 14.09 nmol/min/mL and 12.80 nmol/min/mL and 10.00 nmol/min/mL (2×) and 21.08 nmol/min/mL
% Inhibition Radiometric (Lp-PLA2 [2]; 120 mg, 4 hr after dosing): 90.91% and 72.94%
Lp-PLA2 Activity Radiometric (Lp-PLA2 [2]; 120 mg, 4 hr after dosing): 14.00 nmol/min/mL and 10.00 nmol/min/mL (2×)
% Inhibition Radiometric (Lp-PLA2 [2]; 120 mg, 5 hr after dosing): 91.73%
Lp-PLA2 Activity Radiometric (Lp-PLA2 [2]; 120 mg, 5 hr after dosing): 14.05 nmol/min/mL and 11.69 nmol/min/mL and 10.00 nmol/min/mL (2×) and 20.24 nmol/min/mL
Lp-PLA2 Activity Radiometric (Lp-PLA2 [2]; 120 mg, 6 hr after dosing): 10.00 nmol/min/mL
Lp-PLA2 Activity Radiometric (Lp-PLA2 [2]; 120 mg, 9 hr after dosing): 21.11 nmol/min/mL and 18.51 nmol/min/mL and 14.41 nmol/min/mL and 32.48 nmol/min/mL and 11.21 nmol/min/mL
Lp-PLA2 Activity Radiometric (Lp-PLA2 [2]; 120 mg, 12 hr after dosing): 24.22 nmol/min/mL and 21.27 nmol/min/mL and 16.97 nmol/min/mL and 34.26 nmol/min/mL and 15.69 nmol/min/mL
